According to patent US6444816B1, “Fused 7-oxo-pyrimidinyl compounds, preparation, composition and use thereof” (Dr. Reddy's Research Foundation, priority 1997, dated 2002):

Key:
hPPARα = target: T1, hPPARα (Homo sapiens, UniProt Q07869); assay: Determination of hPPARα activity (GAL4 luciferase reporter transactivation in HEK-293 cells); format: cell-based; conditions: compound at 50 μM, HEK-293 cells transfected with GAL4-hPPARα LBD
T1 construct: expressed in transfected cells; host or cells: HEK-293
T1 sequence (Q07869 239-466 limits assumed): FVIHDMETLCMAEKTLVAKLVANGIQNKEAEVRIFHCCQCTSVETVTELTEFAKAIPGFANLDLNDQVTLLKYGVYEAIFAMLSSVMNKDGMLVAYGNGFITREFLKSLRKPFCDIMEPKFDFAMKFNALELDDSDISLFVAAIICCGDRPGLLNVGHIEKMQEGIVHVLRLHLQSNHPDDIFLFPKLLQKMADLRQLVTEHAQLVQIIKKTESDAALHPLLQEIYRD
Procedure: Ligand binding domain of hPPARα was fused to DNA binding domain of Yeast transcription factor GAL4 in eucaryotic expression vector. Using superfect (Qiagen, Germany) as transfecting reagent HEK-293 cells were transfected with this plasmid and a reporter plasmid harboring the luciferase gene driven by a GAL4 specific promoter. Compound was added at different concentrations after 42 hrs of transfection and incubated overnight. Luciferase activity as a function of compound binding/activation capacity of PPARα was measured using Packard Luclite kit (Packard, USA) in Top Count (Ivan Sadowski, Brendan Bell, Peter Broag and Melvyn Hollis. Gene. 1992. 118: 137-141; Superfect Transfection Reagent Handbook. February 1997. Qiagen, Germany).

Swiss albino mice = assay: Triglyceride lowering activity in Swiss albino mice; format: in vivo; conditions: 3 mg/kg/day oral for 6 days
Procedure: Male Swiss albino mice (SAM) were obtained from NIN and housed in DRF animal house. All these animals were maintained under 12 hour light and dark cycle at 25±1° C. Animals were given standard laboratory chow SIN, Hyderabad, India) and water, ad libitun. SAM of 20-25 g body weight range and Guinea pigs of 500-700 g body weight range were used (Oliver, P., Plancke, M. O., Marzin, D., Clavey, V., Sauzieres, J and Fruchart, J. C. Effects of fenofibrate, gemfibrozil and nicotinic acid on plasma lipoprotein levels in normal and hyperlipidemic mice. Atherosclerosis. 1988. 70:107-114).
The test compounds were administered orally to Swiss albino mice at 0.3 to 30 mg/kg/day dose for 6 days. Control mice were treated with vehicle (0.25% Carboxymethylcellulose; dose 10 ml/kg). The test compounds were administered orally to Guinea pigs at 0.3 to 30 mg/kg/day dose for 6 days. Control animals were treated with vehicle (0.25% Carboxymethylcellulose; dose 5 ml/kg).
The blood samples were collected in fed state 1 hour after drug administration on 0 and 6 day of treatment. The blood was collected from the retro-orbital sinus through heparinised capillary in EDTA containing tubes. After centrifugation, plasma sample was separated for triglyceride and total cholesterol (Wieland, O. Methods of Enzymatic analysis. Bergermeyer, H. O., Ed., 1963. 211-214; Trinder, P. Ann. Clin. Biochem. 1969. 6: 24-27). Measurement of plasma triglyceride, total cholesterol and HDL were done using commercial kits (Dr. Reddy's Diagnostic Division, Hyderabad, India).
(§1) 1. Percent reduction in Blood sugar/triglycerides/total cholesterol were calculated according to the formula: [formula]

hPPARγ1 = target: T2, hPPARγ1 (Homo sapiens, UniProt P37231); assay: Determination of hPPARγ activity (GAL4 luciferase reporter transactivation in HEK-293 cells); format: cell-based; conditions: compound at 1 μM, HEK-293 cells transfected with GAL4-hPPARγ1 LBD
T2 construct: expressed in transfected cells; host or cells: HEK-293
T2 sequence (P37231 238-503 limits assumed): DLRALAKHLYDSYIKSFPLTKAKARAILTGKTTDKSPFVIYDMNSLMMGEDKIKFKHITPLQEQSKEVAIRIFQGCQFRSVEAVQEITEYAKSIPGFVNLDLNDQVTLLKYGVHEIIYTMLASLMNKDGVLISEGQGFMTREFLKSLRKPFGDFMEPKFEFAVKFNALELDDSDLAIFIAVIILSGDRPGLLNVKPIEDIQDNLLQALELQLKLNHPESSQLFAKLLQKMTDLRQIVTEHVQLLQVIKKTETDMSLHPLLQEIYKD
Procedure: Ligand binding domain of hPPARγ1 was fused to DNA binding domain of Yeast transcription factor GAL4 in eucaryotic expression vector. Using lipofectamine (Gibco BRL, USA) as transfecting reagent HEK-293 cells were transfected with this plasmid and a reporter plasmid harboring the luciferase gene driven by a GAL4 specific promoter. Compound was added at 1 μM concentration after 48 hrs of transfection and incubated overnight. Luciferase activity as a function of drug binding/activation capacity of PPARγ1 was measured using Packard Luclite kit (Packard, USA) in Packard Top Count (Ivan Sadowski, Brendan Bell, Peter Broag and Melvyn Hollis. Gene. 1992. 118: 137-141; Guide to Eukaryotic Transfections with Cationic Lipid Reagents. Life Technologies, GIBCO BRL, USA).

[1] = test system: hypercholesterolemic male Sprague Dawley rats; assay: Cholesterol lowering activity in hypercholesterolemic male Sprague Dawley rats; format: in vivo; conditions: 3 mg/kg/day oral for 3 days
Procedure: Male Sprague Dawley rats (NIN stock) were bred in DRF animal house. Animals were maintained under 12 hour light and dark cycle at 25±1° C. Rats of 180-200 gram body weight range were used for the experiment. Animals were made hypercholesterolemic by feeding 2% cholesterol and 1% sodium cholate mixed with standard laboratory chow [National Institute of Nutrition (NMN), Hyderabad, India] for 6 days. Throughout the experimental period the animals were maintained on the same diet (Petit, D., Bonnefis, M. T., Rey, C and Infante, R. Effects of ciprofibrate on liver lipids and lipoprotein synthesis in normo- and hyperlipidemic rats. Atherosclerosis. 1988. 74: 215-225).
The test compounds were administered orally at a dose 0.1 to 30 mg/kg/day for 3 days. Control group was treated with vehicle alone (0.25% Carboxymethylcellulose; dose 10 ml/kg).
The blood samples were collected in fed state 1 hour after drug administration on 0 and 3 day of compound treatment. The blood was collected from the retro-orbital sinus through heparinised capillary in EDTA containing tubes. After centrifugation, plasma sample was separated for total cholesterol, HDL and triglyceride estimations. Measurement of plasma triglyceride, total cholesterol and HDL were done using commercial kits (Dr. Reddy's Laboratory, Diagnostic Division, India). LDL and VLDL cholesterol were calculated from the data obtained for total cholesterol, HDL and triglyceride. The reduction of various parameters examined are calculated according to the formula given below.
as §1
2. LDL and VLDL cholesterol levels were calculated according to the formula: [formula]
VLDL cholesterol in mg/dl=[Total cholesterol−HDL cholesterol−LDL cholesterol] mg/dl.

C57BL/KsJ-db/db mice = assay: Blood glucose and triglyceride lowering activity in db/db mice; format: in vivo; conditions: 3 mg/kg oral gavage daily for 6 days, plasma 1 h after dose on day 6
From the text: Mutation in colonies of laboratory animals and different sensitivities to dietary regimens have made the development of animal models with non-insulin dependent diabetes and hyperlipidemia associated with obesity and insulin resistance possible. Genetic models such as db/db and ob/ob (Diabetes, (1982) 31(1): 1-6) mice and zucker fa/fa rats have been developed by the various laboratories for understanding the pathophysiology of disease and testing the efficacy of new antidiabetic compounds (Diabetes, (1983) 32: 830-838; Annu. Rep. Sankyo Res. Lab. (1994). 46: 1-57). The homozygous animals, C57 BL/KsJ-db/db mice developed by Jackson Laboratory, US, are obese, hyperglycemic, hyperinsulinemic and insulin resistant (J. Clin. Invest., (1990) 85: 962-967), whereas heterozygous are lean and normoglycemic. In db/db model, mouse progressively develops insulinopenia with age, a feature commonly observed in late stages of human type II diabetes when blood sugar levels are insufficiently controlled. The state of pancreas and its course vary according to the models. Since this model resembles that of type II diabetes mellitus, the compounds of the present invention were tested for blood sugar and triglycerides lowering activities.
Male C57BL/KsJ-db/db mice of 8 to 14 weeks age, having body weight range of 35 to 60 grams, bred at Dr. Reddy's Research Foundation (DRF) animal house, were used in the experiment. The mice were provided with standard feed (National Institute of Nutrition (NIN), Hyderabad, India) and acidified water, ad libitum. The animals having more than 350 mg/dl blood sugar were used for testing. The number of animals in each group was 4.
Test compounds were suspended on 0.25% carboxymethyl cellulose and administered to test group at a dose of 0.001 mg to 30 mg/kg through oral gavage daily for 6 days. The control group received vehicle (dose 10 ml/kg). On 6th day the blood samples were collected one hour after administration of test compounds/vehicle for assessing the biological activity.
The random blood sugar and triglyceride levels were measured by collecting blood (100 μl) through orbital sinus, using heparinised capillary in tubes containing EDTA which was centrifuged to obtain plasma. The plasma glucose and triglyceride levels were measured spectrometrically, by glucose oxidase and glycerol-3-PO4 oxidase/peroxidase enzyme (Dr. Reddy's Lab. Diagnostic Division Kits, Hyderabad, India) methods respectively.
The blood sugar and triglycerides lowering activities of the test compound was calculated according to the formula given below.
as §1

PPARα activity (hPPARα) | PPARγ activity (hPPARγ1) | SMILES | Triglyceride (%)↓ (Swiss albino mice) [%] | Reduction in Blood Glucose Level (%) (C57BL/KsJ-db/db mice) | Triglyceride Lowering (%) (C57BL/KsJ-db/db mice) | further results
5.00 | 11.0 | CCCc1nn(C)c2c(=O)n(CCOc3ccc(CC(OCC)C(=O)OCC)cc3)c(CC)nc12 (stereo not shown) [Example 1] | 45 |  |  | 
8.32 | 14.6 | CCCc1nn(C)c2c(=O)n(CCOc3ccc(CC(OCC)C(=O)O)cc3)c(C)nc12 (stereo not shown) [Example 4, 3-[4-[2-(1,5-Dimethyl-7-oxo-3-propyl-6,7-dihydro-1H-pyrazolo[4,3-d]pyrimidin-6-yl)ethoxy]phenyl]-2-ethoxypropanoic Acid] | 66 | 42 | 17 | 

Second part, the compound before the results:

SMILES | PPARα activity (hPPARα) | PPARγ activity (hPPARγ1) | Triglyceride (%)↓ (Swiss albino mice) [%] | Reduction in Blood Glucose Level (%) (C57BL/KsJ-db/db mice) | Triglyceride Lowering (%) (C57BL/KsJ-db/db mice) | further results
CCCc1nn(C)c2c(=O)n(CCOc3ccc(CC(OCC)C(=O)O)cc3)c(CC)nc12 (stereo not shown) [Example 2] |  |  |  |  |  | HDL ↓ [1]: 164; Total Cholesterol (%)↓ [1]: 60%; Triglyceride (%)↓ [1]: 70%; LDL (%)↓ ([1]; LDL calculated from total cholesterol, HDL and triglyceride): 72%; VLDL (%)↓ ([1]; VLDL calculated from total cholesterol, HDL and LDL): 71%
CCCc1nn(C)c2c(=O)n(CCOc3ccc(CC(OCC)C(=O)OCC)cc3)c(C)nc12 (stereo not shown) [Example 3, Ethyl 3-[4-[2-(1,5-Dimethyl-7-oxo-3-propyl-6,7-dihydro-1H-pyrazolo[4,3-d]pyrimidin-6-yl)ethoxy]phenyl]-2-ethoxypropanoate] | 6.9 | 19.0 | 61 | 58 | 23 | 
CCCc1nn(C)c2c(=O)n(CCOc3ccc(CC(Oc4ccccc4)C(=O)O)cc3)c(CC)nc12 (stereo not shown) [Example 10, 3-[4-[2-(5-Ethyl-1-methyl-7-oxo-3-propyl-6,7-dihydro-1H-pyrazolo[4,3-d]pyrimidin-6-yl)ethoxy]phenyl]-2-phenoxypropanoic Acid] |  |  |  | 33 | 35 | 
CCCc1nn(C)c2c(=O)n(CCOc3ccc(CC(OCC)C(=O)OCC)cc3)c(CCC)nc12 (stereo not shown) [Example 13, Ethyl 3-[4-[2-(3,5-Dipropyl-1-methyl-7-oxo-6,7-dihydro-1H-pyrazolo[4,3-d]pyrimidin-6-yl)ethoxy]phenyl]-2-ethoxypropanoate] |  |  | 25 |  |  | 
CCCc1nn(C)c2c(=O)n(CCOc3ccc(C[C@@H](OCC)C(=O)N[C@H](CO)c4ccccc4)cc3)c(CC)nc12 [Example 18A, [2R, N(1S)]-2-Ethoxy-3-[4-[2-(5-ethyl-1-methyl-7-oxo-3-propyl-6,7-dihydro-1H-pyrazolo[4,3-d]pyrimidin-6-y]ethoxy]phenyl]-N-(2-hydroxy-1-phenylethyl) Propanamide] |  |  |  |  |  | melting point: 138 to 139 °C
